Active and inactive are the calls of the source. The calls are words filed in the database; no cut-off is given here.
Key:
[1] = tested on: SNB-75; test: Cytotoxicity against human SNB75 cells; format: functional
[2] = Cytotoxicity against human Hs 578T cells at 10 uM; format: functional; conditions: read-out: GI
[3] = tested on: HCC 2998; test: Cytotoxicity against human HCC2998 cells; format: functional
[4] = tested on: COLO 205; test: Cytotoxicity against human COLO205 cells; format: functional
[5] = tested on: IGROV-1; test: Cytotoxicity against human IGROV1 cells; format: functional
[6] = tested on: NCI-H460; test: Cytotoxicity against human NCI-H460 cells at 10 uM; format: functional; conditions: read-out: GI
[7] = tested on: OVCAR-8; test: Cytotoxicity against human OVCAR8 cells; format: functional
[8] = tested on: A498; test: Cytotoxicity against human A498 cells at 10 uM; format: functional; conditions: read-out: GI
[9] = tested on: LOX IMVI; test: Cytotoxicity against human LOXIMVI cells at 10 uM; format: functional; conditions: read-out: GI
[10] = tested on: CCRF-CEM; test: Cytotoxicity against human CCRF-CEM cells; format: functional
[11] = tested on: HL-60(TB); test: Cytotoxicity against human HL-60(TB) cells at 10 uM; format: functional; conditions: read-out: GI
[12] = tested on: MOLT-4; test: Cytotoxicity against human MOLT4 cells; format: functional
[13] = tested on: HL-60(TB); test: Cytotoxicity against human HL-60(TB) cells; format: functional
[14] = tested on: NCI/ADR-RES; test: Cytotoxicity against human NCI-ADR-RES cells at 10 uM; format: functional
[15] = tested on: HOP-92; test: Cytotoxicity against human HOP92 cells at 10 uM; format: functional; conditions: read-out: GI
[16] = tested on: OVCAR-3; test: Cytotoxicity against human OVCAR3 cells at 10 uM; format: functional; conditions: read-out: GI
[17] = tested on: HT-29; test: Cytotoxicity against human HT-29 cells at 10 uM; format: functional; conditions: read-out: GI
[18] = tested on: SR; test: Cytotoxicity against human SR cells at 10 uM; format: functional; conditions: read-out: GI
[19] = tested on: KM12; test: Cytotoxicity against human KM12 cells; format: functional
[20] = tested on: A498; test: Cytotoxicity against human A498 cells; format: functional
[21] = tested on: K562; test: Cytotoxicity against human K562 cells; format: functional
[22] = Cytotoxicity against human UACC257 cells; format: functional
[23] = tested on: SNB-19; test: Cytotoxicity against human SNB19 cells; format: functional
[24] = tested on: SNB-75; test: Cytotoxicity against human SNB75 cells at 10 uM; format: functional; conditions: read-out: GI
[25] = tested on: Malme-3M; test: Cytotoxicity against human MALME-3M cells; format: functional
[26] = tested on: PC-3; test: Cytotoxicity against human PC3 cells at 10 uM; format: functional; conditions: read-out: GI
[27] = Cytotoxicity against human OVCAR4 cells; format: functional
[28] = tested on: LOX IMVI; test: Cytotoxicity against human LOXIMVI cells; format: functional
[29] = tested on: MDA-MB-231; test: Cytotoxicity against human MDA-MB-231 cells; format: functional
[30] = tested on: MDA-MB-468; test: Cytotoxicity against human MDA-MB-468 cells; format: functional
[31] = tested on: KM12; test: Cytotoxicity against human KM12 cells at 10 uM; format: functional; conditions: read-out: GI
[32] = tested on: SF-268; test: Cytotoxicity against human SF268 cells at 10 uM; format: functional; conditions: read-out: GI
[33] = tested on: SR; test: Cytotoxicity against human SR cells; format: functional
[34] = tested on: M14; test: Cytotoxicity against human M14 cells; format: functional
[35] = tested on: MCF7; test: Cytotoxicity against human MCF7 cells; format: functional
[36] = tested on: SW-620; test: Cytotoxicity against human SW620 cells at 10 uM; format: functional; conditions: read-out: GI
[37] = tested on: SK-MEL-2; test: Cytotoxicity against human SK-MEL-2 cells at 10 uM; format: functional; conditions: read-out: GI
[38] = tested on: MOLT-4; test: Cytotoxicity against human MOLT4 cells at 10 uM; format: functional; conditions: read-out: GI
[39] = tested on: UACC-62; test: Cytotoxicity against human UACC62 cells at 10 uM; format: functional; conditions: read-out: GI
[40] = tested on: DU-145; test: Cytotoxicity against human DU145 cells at 10 uM; format: functional; conditions: read-out: GI
[41] = tested on: RPMI-8226; test: Cytotoxicity against human RPMI8226 cells at 10 uM; format: functional; conditions: read-out: GI
[42] = tested on: HOP-92; test: Cytotoxicity against human HOP92 cells; format: functional
[43] = tested on: MCF7; test: Cytotoxicity against human MCF7 cells at 10 uM; format: functional; conditions: read-out: GI
[44] = tested on: NCI-H460; test: Cytotoxicity against human NCI-H460 cells; format: functional
[45] = tested on: SK-MEL-2; test: Cytotoxicity against human SK-MEL-2 cells; format: functional
[46] = tested on: BT-549; test: Cytotoxicity against human BT549 cells; format: functional
[47] = tested on: K562; test: Cytotoxicity against human K562 cells at 10 uM; format: functional; conditions: read-out: GI
[48] = tested on: PC-3; test: Cytotoxicity against human PC3 cells; format: functional
[49] = tested on: SF-268; test: Cytotoxicity against human SF268 cells; format: functional
[50] = tested on: UACC-62; test: Cytotoxicity against human UACC62 cells; format: functional
[51] = tested on: MDA-MB-435; test: Cytotoxicity against human MDA-MB-435 cells; format: functional
[52] = tested on: SF-539; test: Cytotoxicity against human SF539 cells; format: functional
[53] = tested on: HCT-116; test: Cytotoxicity against human HCT116 cells; format: functional
[54] = tested on: T47D; test: Cytotoxicity against human T47D cells at 10 uM; format: functional; conditions: read-out: GI
[55] = tested on: T47D; test: Cytotoxicity against human T47D cells; format: functional
[56] = tested on: RPMI-8226; test: Cytotoxicity against human RPMI8226 cells; format: functional
[57] = tested on: SK-MEL-28; test: Cytotoxicity against human SK-MEL-28 cells; format: functional
[58] = tested on: NCI-H522; test: Cytotoxicity against human NCI-H522 cells; format: functional
[59] = Cytotoxicity against human Hs 578T cells; format: functional
[60] = tested on: MDA-MB-468; test: Cytotoxicity against human MDA-MB-468 cells at 10 uM; format: functional; conditions: read-out: GI
[61] = tested on: A549; test: Cytotoxicity against human A549 cells at 10 uM; format: functional; conditions: read-out: GI
[62] = tested on: OVCAR-3; test: Cytotoxicity against human OVCAR3 cells; format: functional
[63] = target: Carbonic anhydrase 9 (Homo sapiens, UniProt Q16790)
[64] = read-out: LC50 (the source's name)

Cc1cc(S(=O)(=O)NC(=N)Nc2ccc(S(N)(=O)=O)cc2)c(SCc2ccc(C(F)(F)F)cc2)cc1Cl
GI50 [1]: 2.7 µM | TGI [1]: 17.4 µM | CC50 [1, 64]: 66.1 µM | inhibition of growth at 10 µM [2]: 20% | GI50 [3]: 3.9 µM | TGI [3]: 13.8 µM | CC50 [3, 64]: 46.2 µM | GI50 [4]: 4.4 µM | TGI [4]: 17.7 µM | CC50 [4, 64]: 80.6 µM | GI50 [5]: 5.8 µM | TGI [5]: 23.3 µM | CC50 [5, 64]: 93 µM | inhibition of growth at 10 µM [6]: 21% | GI50 [7]: 4.6 µM | TGI [7]: 22.9 µM | CC50 [7, 64]: 87.6 µM | inhibition of growth at 10 µM [8]: 15% | inhibition of growth at 10 µM [9]: 29% | GI50 [10]: 3.8 µM | TGI [10]: 15.2 µM | CC50 [10, 64]: 86.2 µM | inhibition of growth at 10 µM [11]: 66% | GI50 [12]: 2.8 µM | TGI [12]: 11.2 µM | CC50 [12, 64]: > 100 µM | GI50 [13]: 2.1 µM | TGI [13]: 5.5 µM | CC50 [13, 64]: 34.5 µM | growth inhibition (GI) [14]: inactive | inhibition of growth at 10 µM [15]: 58% | inhibition of growth at 10 µM [16]: 50% | inhibition of growth at 10 µM [17]: 22% | inhibition of growth at 10 µM [18]: 72% | GI50 [19]: 3.1 µM | TGI [19]: 10.9 µM | CC50 [19, 64]: 40.2 µM | GI50 [20]: 4.6 µM | TGI [20]: 21.1 µM | CC50 [20, 64]: 53.7 µM | GI50 [21]: 3.6 µM | TGI [21]: 21.1 µM | CC50 [21, 64]: > 100 µM | GI50 ([22]; UACC-257): 3.6 µM | TGI ([22]; UACC-257): 15.2 µM | CC50 ([22]; UACC-257, read-out: LC50 (the source's name)): 41.1 µM | GI50 [23]: 5 µM | TGI [23]: 21.5 µM | CC50 [23, 64]: 61.1 µM | inhibition of growth at 10 µM [24]: 71% | GI50 [25]: 6.7 µM | TGI [25]: 21 µM | CC50 [25, 64]: 52.5 µM | inhibition of growth at 10 µM [26]: 74% | GI50 ([27]; OVCAR-4): 3.9 µM | TGI ([27]; OVCAR-4): 25.1 µM | CC50 ([27]; OVCAR-4, read-out: LC50 (the source's name)): > 100 µM | GI50 [28]: 4.9 µM | TGI [28]: 17.7 µM | CC50 [28, 64]: 48.4 µM | GI50 [29]: 2.5 µM | TGI [29]: 11.1 µM | CC50 [29, 64]: 37 µM | GI50 [30]: 2.7 µM | TGI [30]: 15 µM | CC50 [30, 64]: 81.6 µM | inhibition of growth at 10 µM [31]: 50% | inhibition of growth at 10 µM [32]: 31% | GI50 [33]: 2.1 µM | TGI [33]: 5.9 µM | CC50 [33, 64]: > 100 µM | GI50 [34]: 7.3 µM | TGI [34]: 22 µM | CC50 [34, 64]: 56.3 µM | GI50 [35]: 2.9 µM | TGI [35]: 14.1 µM | CC50 [35, 64]: 69.7 µM | inhibition of growth at 10 µM [36]: 12% | inhibition of growth at 10 µM [37]: 43% | inhibition of growth at 10 µM [38]: 60% | inhibition of growth at 10 µM [39]: 49% | inhibition of growth at 10 µM [40]: 9% | inhibition of growth at 10 µM [41]: 57% | GI50 [42]: 2.7 µM | TGI [42]: 8.6 µM | CC50 [42, 64]: 33.9 µM | inhibition of growth at 10 µM [43]: 69% | GI50 [44]: 4.2 µM | TGI [44]: 18.5 µM | CC50 [44, 64]: 90 µM | GI50 [45]: 2.4 µM | TGI [45]: 6.3 µM | CC50 [45, 64]: 25.3 µM | GI50 [46]: 4.6 µM | TGI [46]: 18.5 µM | CC50 [46, 64]: 58 µM | inhibition of growth at 10 µM [47]: 64% | GI50 [48]: 3.7 µM | TGI [48]: 13.7 µM | CC50 [48, 64]: 40.9 µM | GI50 [49]: 5.5 µM | TGI [49]: 21.2 µM | CC50 [49, 64]: 64.8 µM | GI50 [50]: 2.6 µM | TGI [50]: 10.4 µM | CC50 [50, 64]: 33 µM | GI50 [51]: 3.8 µM | TGI [51]: 14.8 µM | CC50 [51, 64]: 46.1 µM | GI50 [52]: 4.8 µM | TGI [52]: 18.3 µM | CC50 [52, 64]: 45.1 µM | GI50 [53]: 4 µM | TGI [53]: 15.4 µM | CC50 [53, 64]: 45.9 µM | inhibition of growth at 10 µM [54]: 58% | GI50 [55]: 5.1 µM | TGI [55]: 22.8 µM | CC50 [55, 64]: 95.8 µM | GI50 [56]: 3.1 µM | TGI [56]: 11 µM | CC50 [56, 64]: > 100 µM | GI50 [57]: 4.2 µM | TGI [57]: 15.6 µM | CC50 [57, 64]: 46.6 µM | GI50 [58]: 3.9 µM | TGI [58]: 16.3 µM | CC50 [58, 64]: 48.5 µM | GI50 [59]: 3.7 µM | TGI [59]: 24.6 µM | CC50 [59, 64]: > 100 µM | inhibition of growth at 10 µM [60]: 63% | inhibition of growth at 10 µM [61]: 32% | GI50 [62]: 3.9 µM | TGI [62]: 14 µM | CC50 [62, 64]: 39 µM

Cc1cc(S(=O)(=O)NC(=N)NNc2ccc(S(N)(=O)=O)cc2)c(SCc2cccc(C(F)(F)F)c2)cc1Cl
Ki [63]: 0.021 µM

Cc1cc(S(=O)(=O)NC(=N)Nc2ccccc2S(N)(=O)=O)c(SCc2cccc3ccccc23)cc1Cl
Ki [63]: 0.138 µM

Cc1cc(S(=O)(=O)NC(=N)NCc2ccc(S(N)(=O)=O)cc2)c(SCc2cc(=O)[nH]c3ccccc23)cc1Cl
Ki [63]: 0.31 µM

Reference: ChEMBL document CHEMBL3102853, “Carbonic anhydrase inhibitors. Synthesis, and molecular structure of novel series N-substituted N'-(2-arylmethylthio-4-chloro-5-methylbenzenesulfonyl)guanidines and their inhibition of human cytosolic isozymes I and II and the transmembrane tumor-associated isozymes IX and XII” (Eur J Med Chem, 2014)
